Patent publication US12433877B2, “Sustained release drug delivery systems and related methods” (Durect Corporation, priority 2021, dated 2025)
Where a name gives a salt, the structure may show the parent alone.

Columns and labels:
[1] = test system: patients undergoing elective arthroscopic shoulder surgery; test: Example 1 / Study 1: pain intensity and opioid rescue after arthroscopic shoulder surgery; type: in vivo, human; details: ITT, HCl
[2] = test system: subjects undergoing elective outpatient laparoscopic cholecystectomy; test: Example 17: laparoscopic cholecystectomy study, safety (surgical site and CNS-related adverse reactions, TEAEs); type: in vivo; details: for Fatal TEAE: Part 2
Method: In two studies in patients undergoing laparoscopic cholecystectomy, Formulation A or bupivacaine HCl was administered into the laparoscopic port incisions at the end of surgery. In one of these studies, a subset of patients received either Formulation A or saline placebo. In a study of patients undergoing laparoscopically-assisted colectomy, Formulation A or vehicle placebo was administered predominantly into the hand port incision at the end of surgery. In a study of patients undergoing laparotomy, Formulation A or bupivacaine HCl was administered into the full length of the surgical incision at the end of surgery. Table 4.7 and Table 4.8 present, respectively, surgical-site adverse reactions and early-occurring central nervous system (CNS)-related adverse reactions from the laparoscopic cholecystectomy study that included a saline placebo control arm.
The trial included: 1) a randomized, parallel-group, double-blind, placebo-controlled study (Part 1) and a randomized, parallel-group, double-blind, bupivacaine HCl active-controlled study (Part 2). The trial evaluated the efficacy and safety of Formulation A (bupivacaine, benzyl alcohol, sucrose acetate isobutyrate) as a delivery system in subjects undergoing elective outpatient laparoscopic cholecystectomy.
The study was conducted as 2 separate parts (Part 1 and Part 2).
The fascia was closed, as required, prior to instillation of Formulation A. Formulation A was instilled into the incisions via a blunt-tipped syringe-tip applicator just prior to skin closure. After administration, the skin was closed in standard fashion with subcuticular sutures and cyanoacrylate skin adhesive or Steri-Strips™.
In Part 1, subjects randomized to saline-placebo were administered sterile normal saline 5 mL (0.9% sodium chloride injection, USP) by direct instillation into the surgical incisions. The 5 mL of placebo was divided between the 4 ports according to a protocol-specified dosing schedule, to provide coverage of all surgical incisions. The fascia was closed, as required, prior to instillation of the placebo composition. The placebo composition was instilled into the incisions via a blunt-tipped syringe-tip applicator just prior to skin closure. After administration, the skin was closed in standard fashion with subcuticular sutures and cyanoacrylate skin adhesive or Steri-Strips™.
In Part 2, subjects randomized to active control were administered bupivacaine HCl 0.5% 15 mL (75 mg; without epinephrine) by infiltration into the margins of the surgical incisions with a 22 gauge needle. The 15 mL of bupivacaine HCl composition was divided between the 4 ports according to a protocol-specified dosing schedule, to provide coverage of all surgical incisions. The fascia was closed, as required, prior to administration of the bupivacaine HCl active control composition. After infiltration, the skin was closed in standard fashion with subcuticular sutures and cyanoacrylate skin adhesive or Steri-Strips™
There were no fatalities in this trial. […]

[3] = clinical; details: human, in vivo; for half-life: t1/2 (min, max)
Method: Additionally, alpha 1 acid glycoprotein (AAG) plasma concentrations were measured in these two groups for correlation with free bupivacaine concentrations.
Using non-compartmental methods the following PK parameters were calculated from the plasma concentrations of each compound: area under the plasma concentration vs. time curve until the last measured concentration (AUCt), area under the plasma concentration vs. time curve extrapolated until infinity (AUCinf), the maximum concentration (Cmax), the time of its occurrence (tmax) and the apparent terminal elimination half-life (t1/2). […] The average […] of bupivacaine was approximately 5.2%; free bupivacaine plasma concentrations generally paralleled those of total bupivacaine. There was a large interindividual variability of Cmax of both total and free bupivacaine. […] Note: Table 1.5 presents Geometric mean, ±68th percentile for Cmax rather than absolute min,max.

[4] = Example 18: plasma pharmacokinetics by cohort; type: in vivo, human; details: Cohort 2; total bupivacaine in plasma
Method: Plasma PK samples were analyzed for determination of total bupivacaine concentration only and none of the samples were analyzed for determination of free drug concentration.

CCCCN1CCCCC1C(=O)Nc1c(C)cccc1C (centres unmarked) [Bupivacaine HCl]
Total IV morphine equivalent dose of opioid rescue medication, median ([1]; 0-72 hours after surgery): 8.0 mg | Time to first use of opioid rescue medication, median (95% CI) ([1]; Kaplan-Meier): 1.4 (1.0, 4.1) hours | Fatal TEAE ([2]; % of subjects): (0.0%) | Fatal TEAE ([2]; number of subjects): 0 | Surgical site: Drainage from surgical incision(s) ([2]; human, in vivo): (4.1%) | Surgical site: Surgical site bleeding ([2]; human, in vivo): (16.2%) | Surgical site: Surgical site infection ([2]; human, in vivo): (0.7%) | Surgical site: Visible bruising ([2]; human, in vivo): (70.9%) | Surgical site: Wound dehiscence ([2]; human, in vivo): (2.0%) | Surgical site: Wound hematoma ([2]; human, in vivo): (1.4%) | Treated subjects with treatment-emergent serious adverse events ([2]; human, in vivo): 3 subjects | Constipation (Constipation), (%) ([2]; human, in vivo, 6 h): (6.8%) | Dizziness (Dizziness), (%) ([2]; human, in vivo, 6 h): (20.9%) | Dysgeusia (Metallic taste in mouth), (%) ([2]; human, in vivo, 6 h): (14.9%) | Headache (Headache), (%) ([2]; human, in vivo, 6 h): (12.2%) | Hypoesthesia (Numbness), (%) ([2]; human, in vivo, 6 h): (0.7%) | Nausea (Nausea), (%) ([2]; human, in vivo, 6 h): (38.5%) | Paresthesia (Tingling), (%) ([2]; human, in vivo, 6 h): (4.1%) | Pruritus (Itching), (%) ([2]; human, in vivo, 6 h): (3.4%) | Somnolence (Drowsiness), (%) ([2]; human, in vivo, 6 h): (32.4%) | Vomiting (Vomiting), (%) ([2]; human, in vivo, 6 h): (10.1%) | AUC(0-inf) [3]: 30 to 2210 ng·h/mL | AUC(0-t) [3]: 249 to 1900 ng·h/mL | AUCinf (min, max), free bupivacaine [3]: (0.7, 134) h · ng/mL | AUCinf, free bupivacaine [3]: 48 ng·h/mL | AUCt (min, max), free bupivacaine [3]: (0.010, 0.102) mg · h · L^−1 | AUCt, free bupivacaine [3]: 33 ng·h/mL | Cmax [3]: 8 to 195 ng/mL | Cmax, free bupivacaine [3]: 5.0 ng/mL | Cmax, total bupivacaine [3]: 90 ng/mL | Tmax [3]: 0.92 to 12 h | tmax (min, max), free bupivacaine [3]: (0.92, 12.0) h | half-life ([3]; free bupivacaine): 2.9 to 15.2 h | half-life ([3]; total bupivacaine): 2.6 to 9.6 h | Tmax Median [4]: 1 h
